# Measurements taken from paper PMC8080595, “Discovery of a novel RORγ antagonist with skin-restricted exposure for topical treatment of mild to moderate psoriasis” (Scientific Reports, 2021).
# Like-named read-outs stand apart in the source and are kept apart here.
# Tests used:
# [1] = Liver microsomal stability, rat; type: in vitro ADME; details: liver microsomes, pH 7.4, read-out: Liver microsomal stability, t1/2, Rat
# Experimental: (§1) The compound was mixed with 0.5 mg/ml human liver microsome (Thermal Fisher) at a final concentration of 1 µM in 100 mM potassium phosphate buffer, pH 7.4. The reactions were initiated by the addition of 1 mM NADPH. Samples in duplicate were incubated at 37 °C with mixing. 100 µL aliquots were transferred after 0, 5, 10, 30, 45, 60 minutes to a new tube with 300 µL acetonitrile, incubated on ice for 30 minutes, centrifuged at 1800×g at 4 °C for 10 minutes. The supernatants were transferred to glass vials subjected to LC/MS analysis. Peak areas were measured to calculate half-life according to the formula t1/2 = − 0.693/slope of linear regression analysis of ln [concentration] versus incubation time. Similar methods were applied to access mouse and rat liver microsomal stability of the compounds.
# [2] = Liver microsomal stability, human; type: in vitro ADME; details: pH 7.4
# Experimental: as §1
# [3] = test system: IL-17 secretion from human PBMCs; assay: Human IL-17 production assay using human PBMC; type: cell-based; details: cytostim stimulation 72 h
# Experimental: To confirm cellular on-target effects, we investigated the inhibition of selected RORγ antagonists on RORγ-regulated IL-17 secretion using human PBMC. Human IL-17-producing cells were readily formed following cytostim stimulation. In human PBMC stimulated with cytostim for 72 h, differentiation of Th17 cells was confirmed by increased secretion of IL-17 (291 pg/mL) in cell culture supernatant compared to basal level of IL-17 (20 pg/mL IL-17 without cytostim stimulation), […] of IL-17 secretion.
# Human PBMCs (Zenbio) in TexMACS media were stimulated by cytostim (Miltenyi) for 72 h following the vendor's instruction. Human IL-17A in cell culture supernatant was measured using AlphaLISA human IL-17A Biotin-free detection kit (Perkin Elmer) according to the manufacturer’s protocol.
# Oral PK in SD rats = type: in vivo; details: male, rat, plasma; for AUC: read-out: Exposure in SD Rat, AUC; for Cmax: read-out: Exposure in SD Rat, Cmax; for half-life: read-out: Exposure in SD Rat, t1/2 (converted)
# Experimental: Compounds were dissolved in 5% DMSO, 5% tween 80 and then added 90% saline. Male SD rats were dosed with the compound via oral (2 mg/kg or 5 mg/kg) routes, respectively after fasting overnight. Blood of the animals were collected at indicated time post dosing. Blood samples were then prepared for plasma and analyzed for the compounds using validated LC/MS assays. The experimental protocol used in this study was approved by IACUC. The experiments were conducted in accordance with the Guiding Principles for the Care and Use of Laboratory Animals and complied with the ARRIVE guidelines.
# RORγ LBD = target: T1, RORγ LBD (Homo sapiens, UniProt P51449); assay: LanthaScreen TR-FRET human RORγ coactivator assay; type: biochemical; details: antagonist mode, read-out: Binding of RORγ LBD, IC50
# T1 construct: The assay was performed with GST-tag RORγ LBD (25 ng/reaction, Creative Biomart); purchased Creative Biomart
# T1 sequence (P51449 269-508 limits assumed): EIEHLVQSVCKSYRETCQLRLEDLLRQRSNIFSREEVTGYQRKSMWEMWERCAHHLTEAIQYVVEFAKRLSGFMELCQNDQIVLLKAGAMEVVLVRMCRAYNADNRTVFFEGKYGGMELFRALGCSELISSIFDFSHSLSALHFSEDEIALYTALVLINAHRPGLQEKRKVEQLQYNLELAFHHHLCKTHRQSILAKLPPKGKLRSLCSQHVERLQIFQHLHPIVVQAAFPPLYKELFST
# From the text: In LanthaScreen TR-FRET RORγ coactivator assay, the RORγ LBD was constitutively active and the coactivator peptide (fluorescein-D22) was recruited in the absence of ligand, or compound (Fig. 2a). The binding of an antagonist to RORγ LBD causes a conformational change of the receptor, leading to a decrease in the affinity of the receptor for the coactivator peptide. The separation of the fluorescently labeled coactivator peptide from RORγ LBD from the receptor with the terbium-labeled antibody causes a decrease in the TR-FRET signal compared to those without compound. The assay was validated by detecting the ligand-independent recruitment of coactivator peptide in the presence or absence of RORγ LBD (2.5- to 3-fold assay window). Effects of the key compounds of the novel chemotype in Fig. 1, were tested in LanthaScreen TR-FRET RORγ coactivator assay.
# The assay was performed with GST-tag RORγ LBD (25 ng/reaction, Creative Biomart), 0.6 μM Fluorescein-D22 coactivator peptide and 8 nM Tb anti-GST antibody (Invitrogen) at room temperature for 60 minutes. The fluorescent signals were measured with 520 nm emission and 495 nm excitation on Tecan Infinite. The data were calculated using DMSO control as 0% inhibition and non-protein control as 100% inhibition. IC50 values were calculated using non-linear regression analysis of GraphPad Prism in all assays.
# [4] = Liver microsomal stability, mouse; type: in vitro ADME; details: liver microsomes, pH 7.4, read-out: Liver microsomal stability, t1/2, Mouse
# Experimental: as §1
# psoriasis [5] = test system: psoriasis; design: method as in PMID 29150844; details: ointment 0.03%, 0.1%, 0.8% and 4%, all doses; cited from earlier work
# [6] = test system: IMQ-induced mouse psoriasis-like inflammation model; design: method as in PMID 26870941; details: 1% GSK2981278 ointment vs placebo + IMQ control; cited from earlier work
# psoriasis [7] = test system: psoriasis; design: method as in PMID 27852111; details: oral, phase 2a, cited from earlier work
# [8] = human, liver microsomes, 1 µM compound, 0.5 mg/ml microsome, NADPH, 37 °C, read-out: Liver microsomal stability, t1/2, Human
structure (smiles),measurement,setting,value
"CCS(=O)(=O)c1ccc(Cc2nc3c(Cl)c(-c4ccccc4OC(F)(F)F)c(Cl)cc3[nH]2)c(Cl)c1 [Compound 1, 4,6-dichloro-2-(2-chloro-4-(ethylsulfonyl)benzyl)-5-(2-(trifluoromethoxy)phenyl)-1H-benzo[d]imidazole]",half-life at 1 µM,[1],> 120 min
same,half-life at 1 µM,[2]; [8],> 120 min
same,EC50,[3],30 ± 10 nM
same,AUC,Oral PK in SD rats; 5 mg/kg oral,6980 ng·h/mL
same,Cmax,Oral PK in SD rats; 5 mg/kg oral,446 ng/mL
same,half-life,Oral PK in SD rats; 5 mg/kg oral,768 min
same,IC50,RORγ LBD,62 ± 18 nM
"CCS(=O)(=O)c1ccc(Cc2nc3c(Cl)c(N4CCC(F)(F)CC4)c(Cl)cc3[nH]2)cc1 [Compound 2, 4,6-dichloro-5-(4,4-difluoropiperidin-1-yl)-2-(4-(ethylsulfonyl)benzyl)-1H-benzo[d]imidazole]",half-life at 1 µM,[1],34.5 min
same,half-life at 1 µM,[2]; [8],18.5 min
same,half-life at 1 µM,"[2]; range across human, rat and mouse liver microsomes, read-out: t1/2 in human, rat and mouse liver microsome stability assays",7.8 to 34.5 min
same,EC50,[3],46 ± 2 nM
same,AUC,Oral PK in SD rats; 2 mg/kg oral,352 ng·h/mL
same,Cmax,Oral PK in SD rats; 2 mg/kg oral,70 ng/mL
same,half-life,Oral PK in SD rats; 2 mg/kg oral,120 min
same,half-life at 1 µM,[4],7.8 min
same,IC50,RORγ LBD,40 ± 27 nM
CCc1ccc(N(CC(C)C)S(=O)(=O)c2ccc(OCC3CCOCC3)c(CO)c2)cc1 [GSK2981278],Infiltrate thickness,psoriasis [5],not changed
same,reduction of epithermal thickness,[6],23%
CCS(=O)(=O)c1ccc(CNC(=O)c2cnc3c(c2)CN(C[C@H]2CC[C@H](C(F)(F)F)CC2)[C@H]3C(C)C)nc1 [VTP43742],efficacy in psoriatic patients,psoriasis [7]; four-week period,clear signal of efficacy
same,transaminase,psoriasis [7],elevations of reversible transaminase
